Reference: patent US5593984A, “Cephalosporin derivatives” (Yuhan Corporation, priority 1992, dated 1997)
≈ marks a conversion by molar mass, not a printed value.

What was measured:
Type in all cases: cell-based
B. subtilis ATCC 6633 = experiment: MIC by agar dilution, B. subtilis ATCC 6633; conditions: Bacillus subtilis, ATCC6633, 17 h; B. subtilis ATCC 6633; agar dilution, Mueller-Hinton agar; read-out: Minimal Inhibitory Concentration (MIC)
Experimental: (§1) These MIC values were determined by agar dilution method: that is, two-fold dilutions of each of the test compounds were made and dispersed in a Mueller-Hinton agar medium; standard test strain which had the 10^6 CFU (Colony Forming Unit) per ml was inoculated on the medium with microplanter (Toyo, Japan), and incubated at 35°-37° C. for 17±1 hours. The structures of Ceftazidime (CAZ) and Cefotaxime (CTX) which are used as control compounds are as follows: [drawing 12]

Ps. aeruginosa DY-2 = experiment: MIC by agar dilution, Ps. aeruginosa DY-2; conditions: Pseudomonas aeruginosa, DY2, 17 h; Ps. aeruginosa DY-2; agar dilution, Mueller-Hinton agar; read-out: Minimal Inhibitory Concentration (MIC)
Experimental: as §1

Staph. aureus ATCC 6538P = experiment: MIC by agar dilution, Staph. aureus ATCC 6538P; conditions: Staphylococcus aureus, ATCC6538P, 17 h; Staph. aureus ATCC 6538P; agar dilution, Mueller-Hinton agar; read-out: Minimal Inhibitory Concentration (MIC)
Experimental: as §1

Staph. aureus Smith = experiment: MIC by agar dilution, Staph. aureus Smith; conditions: Staphylococcus aureus, 17 h, Mueller-Hinton agar, read-out: Minimal Inhibitory Concentration (MIC)
Experimental: as §1

E. coli No. 29 = experiment: MIC by agar dilution, E. coli No. 29; conditions: Escherichia coli, 17 h; E. coli No. 29; agar dilution, Mueller-Hinton agar; read-out: Minimal Inhibitory Concentration (MIC)
Experimental: as §1

E. coli NIHJ JC-2 = experiment: MIC by agar dilution, E. coli NIHJ JC-2; conditions: Escherichia coli, NIHJJC2, 17 h; E. coli NIHJ JC-2; agar dilution, Mueller-Hinton agar; read-out: Minimal Inhibitory Concentration (MIC)
Experimental: as §1

Ent. aerogenes IFO 12979 = experiment: MIC by agar dilution, Ent. aerogenes IFO 12979; conditions: Klebsiella aerogenes, IFO12979, 17 h, Mueller-Hinton agar, read-out: Minimal Inhibitory Concentration (MIC)
Experimental: as §1

Staph. aureus C-5216 = experiment: MIC by agar dilution, Staph. aureus C-5216; conditions: Staphylococcus aureus, C5216, 17 h, Mueller-Hinton agar, read-out: Minimal Inhibitory Concentration (MIC)
Experimental: as §1

[1] = system: S. epidermidis ATCC 12228; experiment: MIC by agar dilution, S. epidermidis ATCC 12228; conditions: Staphylococcus epidermidis, ATCC12228, 17 h; S. epidermidis ATCC 12228; agar dilution, Mueller-Hinton agar; read-out: Minimal Inhibitory Concentration (MIC)
Experimental: as §1

K. pneumoniae NCTC 9632 = experiment: MIC by agar dilution, K. pneumoniae NCTC 9632; conditions: Klebsiella pneumoniae, NCTC9632, 17 h; K. pneumoniae NCTC 9632; agar dilution, Mueller-Hinton agar; read-out: Minimal Inhibitory Concentration (MIC)
Experimental: as §1

[2] = system: Ps. aeruginosa NCTC 10490; experiment: MIC by agar dilution, Ps. aeruginosa NCTC 10490; conditions: Pseudomonas aeruginosa, NCTC10490, 17 h, Mueller-Hinton agar, read-out: Minimal Inhibitory Concentration (MIC)
Experimental: as §1

Ent. cloacae IFO 13535 = experiment: MIC by agar dilution, Ent. cloacae IFO 13535; conditions: Enterobacter cloacae, IFO13535, 17 h; Ent. cloacae IFO 13535; agar dilution, Mueller-Hinton agar; read-out: Minimal Inhibitory Concentration (MIC)
Experimental: as §1

[3] = system: Ser. marcescens IFO 12648; experiment: MIC by agar dilution, Ser. marcescens IFO 12648; conditions: Serratia marcescens, IFO12648, 17 h; Ser. marcescens IFO 12648; agar dilution, Mueller-Hinton agar; read-out: Minimal Inhibitory Concentration (MIC)
Experimental: as §1

E. coli DY-1 = experiment: MIC by agar dilution, E. coli DY-1; conditions: Escherichia coli, DY1, 17 h; E. coli DY-1; agar dilution, Mueller-Hinton agar; read-out: Minimal Inhibitory Concentration (MIC)
Experimental: as §1

Prov. stuartii IFO 12930 = experiment: MIC by agar dilution, Prov. stuartii IFO 12930; conditions: Providencia stuartii, IFO12930, 17 h, Mueller-Hinton agar, read-out: Minimal Inhibitory Concentration (MIC)
Experimental: as §1

Staph. aureus C-5113 = experiment: MIC by agar dilution, Staph. aureus C-5113; conditions: Staphylococcus aureus, C5113, 17 h, Mueller-Hinton agar, read-out: Minimal Inhibitory Concentration (MIC)
Experimental: as §1

P. vulgaris NCTC 8313 = experiment: MIC by agar dilution, P. vulgaris NCTC 8313; conditions: Proteus vulgaris, NCTC8313, 17 h; P. vulgaris NCTC 8313; agar dilution, Mueller-Hinton agar; read-out: Minimal Inhibitory Concentration (MIC)
Experimental: as §1

[4] = system: Ps. aeruginosa ATCC 10145; experiment: MIC by agar dilution, Ps. aeruginosa ATCC 10145; conditions: Pseudomonas aeruginosa, ATCC10145, 17 h, Mueller-Hinton agar, read-out: Minimal Inhibitory Concentration (MIC)
Experimental: as §1

Staph. aureus C-57 = experiment: MIC by agar dilution, Staph. aureus C-57; conditions: Staphylococcus aureus, C57, 17 h, Mueller-Hinton agar, read-out: Minimal Inhibitory Concentration (MIC)
Experimental: as §1

M. morganii DY-1 = experiment: MIC by agar dilution, M. morganii DY-1; conditions: Morganella morganii, DY1, 17 h; M. morganii DY-1; agar dilution, Mueller-Hinton agar; read-out: Minimal Inhibitory Concentration (MIC)
Experimental: as §1

MIC (B. subtilis ATCC 6633) | MIC (Ps. aeruginosa DY-2) | MIC (Staph. aureus ATCC 6538P) | MIC (Staph. aureus Smith) | MIC (E. coli No. 29) | MIC (E. coli NIHJ JC-2) | MIC (Ent. aerogenes IFO 12979) | MIC (Staph. aureus C-5216) | MIC [1] | MIC (K. pneumoniae NCTC 9632) | MIC [2] | MIC (Ent. cloacae IFO 13535) | MIC [3] | MIC (E. coli DY-1) | MIC (Prov. stuartii IFO 12930) | MIC (Staph. aureus C-5113) | MIC (P. vulgaris NCTC 8313) | MIC [4] | MIC (Staph. aureus C-57) | MIC (M. morganii DY-1) | SMILES
0.2 µg/mL (≈ 0.376 µM) | 3.13 µg/mL (≈ 5.89 µM) | 0.2 µg/mL (≈ 0.376 µM) | 0.39 µg/mL (≈ 0.734 µM) | ≤ 0.006 µg/mL | 0.012 µg/mL (≈ 0.0226 µM) | 0.012 µg/mL (≈ 0.0226 µM) | 0.78 µg/mL (≈ 1.47 µM) | 0.1 µg/mL (≈ 0.188 µM) | 0.012 µg/mL (≈ 0.0226 µM) | 0.2 µg/mL (≈ 0.376 µM) | 0.05 µg/mL (≈ 0.0941 µM) | 0.012 µg/mL (≈ 0.0226 µM) | ≤ 0.006 µg/mL | ≤ 0.006 µg/mL | 1.56 µg/mL (≈ 2.93 µM) | ≤ 0.006 µg/mL | 0.39 µg/mL (≈ 0.734 µM) | 25 µg/mL (≈ 47 µM) | ≤ 0.006 µg/mL | Nc1nc(C(=NOCF)C(=O)NC2C(=O)N3C(C(=O)[O-])=C(C[n+]4ccn5cccc5c4)CSC23)cs1 (stereo not drawn) [Ex. 6, 7-β-[(Z)-2-(2-aminothiazol-4-yl)-2-fluoromethoxyiminoacetamido]-3-(pyrrolo[1,2-a]pyrazinium-2-yl)methyl-3-cephem-4-carboxylate]
0.1 µg/mL (≈ 0.17 µM) | 1.56 µg/mL (≈ 2.65 µM) | 0.2 µg/mL (≈ 0.34 µM) | 0.78 µg/mL (≈ 1.32 µM) | ≤ 0.006 µg/mL | ≤ 0.006 µg/mL | ≤ 0.006 µg/mL | 0.78 µg/mL (≈ 1.32 µM) | 0.05 µg/mL (≈ 0.0849 µM) | 0.012 µg/mL (≈ 0.0204 µM) | 0.2 µg/mL (≈ 0.34 µM) | 0.1 µg/mL (≈ 0.17 µM) | 0.012 µg/mL (≈ 0.0204 µM) | ≤ 0.006 µg/mL | ≤ 0.006 µg/mL | 0.78 µg/mL (≈ 1.32 µM) | ≤ 0.006 µg/mL | 0.78 µg/mL (≈ 1.32 µM) | 100 µg/mL (≈ 170 µM) | 0.012 µg/mL (≈ 0.0204 µM) | CON=C(C(=O)NC1C(=O)N2C(C(=O)[O-])=C(C[n+]3ccn4c(SCCN)ccc4c3)CSC12)c1csc(N)n1 (stereo not drawn) [Ex. 27, 7-β-[(Z)-2-(2-aminothiazol-4-yl)2-methoxyiminoacetamido]-3-[6-(2-aminoethylthio)pyrrolo[1,2-a]pyrazinium-2-yl]methyl-3-cephem-4-carboxylate]
0.1 µg/mL (≈ 0.179 µM) | 3.13 µg/mL (≈ 5.61 µM) | 0.2 µg/mL (≈ 0.359 µM) | 0.78 µg/mL (≈ 1.4 µM) | ≤ 0.006 µg/mL | 0.025 µg/mL (≈ 0.0448 µM) | ≤ 0.006 µg/mL | 1.56 µg/mL (≈ 2.8 µM) | 0.2 µg/mL (≈ 0.359 µM) | 0.012 µg/mL (≈ 0.0215 µM) | 0.2 µg/mL (≈ 0.359 µM) | 0.1 µg/mL (≈ 0.179 µM) | 0.025 µg/mL (≈ 0.0448 µM) | ≤ 0.006 µg/mL | ≤ 0.006 µg/mL | 1.56 µg/mL (≈ 2.8 µM) | 0.012 µg/mL (≈ 0.0215 µM) | 0.78 µg/mL (≈ 1.4 µM) | 50 µg/mL (≈ 89.7 µM) | 0.012 µg/mL (≈ 0.0215 µM) | CON=C(C(=O)NC1C(=O)N2C(C(=O)[O-])=C(C[n+]3ccn4c(C(C)O)ccc4c3)CSC12)c1csc(N)n1 (stereo not drawn) [Ex. 20, 7-β-[(Z)-2-(2-aminothiazol-4-yl)-2-methoxyiminoacetamido]-3-[6-(1-hydroxyethyl)pyrrolo[1,2-a]pyrazinium-2-yl]methyl-3-cephem-4-carboxylate]
0.1 µg/mL (≈ 0.17 µM) | 3.13 µg/mL (≈ 5.31 µM) | 0.1 µg/mL (≈ 0.17 µM) | 0.2 µg/mL (≈ 0.339 µM) | ≤ 0.006 µg/mL | 0.012 µg/mL (≈ 0.0203 µM) | 0.012 µg/mL (≈ 0.0203 µM) | 0.78 µg/mL (≈ 1.32 µM) | 0.1 µg/mL (≈ 0.17 µM) | 0.012 µg/mL (≈ 0.0203 µM) | 0.2 µg/mL (≈ 0.339 µM) | 1.56 µg/mL (≈ 2.65 µM) | 0.012 µg/mL (≈ 0.0203 µM) | ≤ 0.006 µg/mL | ≤ 0.006 µg/mL | 0.39 µg/mL (≈ 0.661 µM) | 0.012 µg/mL (≈ 0.0203 µM) | 0.78 µg/mL (≈ 1.32 µM) | 25 µg/mL (≈ 42.4 µM) | 0.025 µg/mL (≈ 0.0424 µM) | CON=C(C(=O)NC1C(=O)N2C(C(=O)[O-])=C(C[n+]3ccn4c(SCCO)ccc4c3)CSC12)c1csc(N)n1 (stereo not drawn) [Ex. 8, 7-β-[(Z)-2-(2-aminothiazol-4-yl)-2-methoxyiminoacetamido]-3-[6-(2-hydroxyethylthio)pyrrolo[1,2-a]pyrazinium-2-yl]methyl-3-cephem-4-carboxylate]
